From patent US11440923B2, “Substituted macrocyclic indole derivatives” (Bayer Aktiengesellschaft, priority 2017, dated 2022)
pIC50: −log10 of the molar value. Structures can show the parent of a compound that is named as a salt. Where two headings read alike, the source gives them in different places.

Tests used:
SUDHL10 cells = test: Induction of cytotoxicity in SUDHL10 cells (Assay 6); format: cell-based; conditions: 5 h, CellTiter-Glo, read-out: Cytotox SUDHL10 IC50 (median)
Summary of the method: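 Run alongside apoptosis measurements, this cytotoxicity readout used cells treated with compound for 5 h at 37 °C and quantified ATP-based luminescence with CellTiter-Glo.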

HMC-1-8 cells = test: Antiproliferation assay HMC-1-8 (Assay 7); format: cell-based
Summary of the method: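 Cells are plated alongside a time-zero reference plate and held overnight at 37 °C. Treated plates are incubated 72 h, then ATP-based luminescence (CellTiter-Glo) is read. IC50 uses day 0 as baseline and DMSO as untreated control.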

[1] = 72 h, CellTiter-Glo; read-out: Antiproli HMC-1-8 IC50 median

Compound | pIC50 (SUDHL10 cells) | pIC50 (HMC-1-8 cells; [1]) | further results
CCc1c2c(nn1C)C(CCC1CCOCC1)OCCCCn1c(C(=O)O)c(CCCOc3cccc4cc(F)ccc34)c3ccc(Cl)c-2c31 (single isomer, unassigned; enantiomer 1) [Example 61, 4-chloro-3-ethyl-7-{3-[(6-fluoronaphthalen-1-yl)oxy]propyl}-2-methyl-15-[2-(oxan-4-yl)ethyl]-2,10,11,12,13,15-hexahydropyrazolo[4′,3′:9,10][1,6]oxazacycloundecino[8,7,6-hi]indole-8-carboxylic Acid (Enantiomer 1)] | 7.54 | 6.73 | –
CCc1c2c(nn1C)C(CCC1CCOCC1)OCCCCn1c(C(=O)O)c(CCCOc3cccc4cc(F)ccc34)c3ccc(Cl)c-2c31 (single isomer, unassigned; enantiomer 1) [Example 63, (+)-4-chloro-3-ethyl-7-{3-[(6-fluoronaphthalen-1-yl)oxy]propyl}-2-methyl-15-[2-(oxan-4-yl)ethyl]-2,10,11,12,13,15-hexahydropyrazolo[4′,3′:9,10][1,6]oxazacycloundecino[8,7,6-hi]indole-8-carboxylic Acid—N-ethylethanamine Salt (Enantiomer 1)] | 7.17 | – | pIC50 (HMC-1-8 cells; read-out: Antiproli HMC-1-8 IC50 median; 72 h, CellTiter-Glo): 6.45
CCc1c2c(nn1C)C1CCCCN1CCCCn1c(C(=O)O)c(CCCOc3cccc4ccccc34)c3ccc(Cl)c-2c31 (racemic) [Example 102, (rac)-18-chloro-1-ethyl-2-methyl-15-[3-(1-naphthyloxy)propyl]-2,3b,4,5,6,7,9,10,11,12-decahydropyrazolo[3′,4′:8,9]pyrido[1′,2′:6,7][1,6]diazacycloundecino[10,11,1-hi]indole-14-carboxylic Acid] | – | – | pIC50 (SUDHL10 cells; Homo sapiens, SU-DHL10, 5 h): 6.02; pIC50 (HMC-1-8 cells; 72 h, CellTiter-Glo, read-out: Antiproli HMC-1-8 IC50 median): 5.13
CCc1c2c(nn1C)C(CCN1CCOCC1)OCCCCn1c(C(=O)O)c(CCCOc3cccc4ccccc34)c3ccc(F)c-2c31 (single isomer, unassigned; enantiomer 1) [Example 11, 3-ethyl-4-fluoro-2-methyl-15-[2-(morpholin-4-yl)ethyl]-7-{3-[(naphthalen-1-yl)oxy]propyl}-2,10,11,12,13,15-hexahydropyrazolo[4′,3′:9,10][1,6]oxazacycloundecino[8,7,6-hi]indole-8-carboxylic Acid—N-ethylethanamine Salt (Enantiomer 1)] | 6.60 | – | pIC50 (HMC-1-8 cells; 72 h, read-out: Antiproli HMC-1-8 IC50 median, 72 h, CellTiter-Glo): 5.99
CCc1c2c(nn1C)C(CCN1CC(F)(F)C1)OCCCCn1c(C(=O)O)c(CCCOc3cccc4cc(F)ccc34)c3ccc(Cl)c-2c31 (single isomer, unassigned; (+)) [Example 78, (+)-4-chloro-15-[2-(3,3-difluoroazetidin-1-yl)ethyl]-3-ethyl-7-{3-[(6-fluoronaphthalen-1-yl)oxy]propyl}-2-methyl-2,10,11,12,13,15-hexahydropyrazolo[4′,3′:9,10][1,6]oxazacycloundecino[8,7,6-hi]indole-8-carboxylic Acid—N-ethylethanamine Salt] | 7.92 | 6.25 | –
CCc1c2c(nn1C)C(CCC(C)(C)O)OCCCCn1c(C(=O)O)c(CCCOc3cccc4cc(F)ccc34)c3ccc(Cl)c-2c31 (single isomer, unassigned; enantiomer 1) [Example 75, (+)-4-chloro-3-ethyl-7-{3-[(6-fluoronaphthalen-1-yl)oxy]propyl}-15-(3-hydroxy-3-methylbutyl)-2-methyl-2,10,11,12,13,15-hexahydropyrazolo[4′,3′:9,10][1,6]oxazacycloundecino[8,7,6-hi]indole-8-carboxylic Acid—N-ethylethanamine Salt (Enantiomer 1)] | 8.01 | 6.80 | –
CCc1c2c(nn1C)C1CCCN1CCCCn1c(C(=O)O)c(CCCOc3cccc4cc(F)ccc34)c3ccc(Cl)c-2c31 (single isomer, unassigned; (+)) [Example 105, (+)-17-chloro-1-ethyl-14-{3-[(6-fluoronaphthalen-1-yl)oxy]propyl}-2-methyl-3b,4,5,6,8,9,10,11-octahydro-2H-pyrazolo[3′,4′:8,9]pyrrolo[1′,2′:6,7][1,6]diazacycloundecino[10,11,1-hi]indole-13-carboxylic Acid] | 6.54 | 5.58 | –
